Reference: patent US11731943B2, “Therapeutic compounds, compositions and methods of use thereof” (priority 2016, dated 2023)
Read-outs that look alike come from different tables or passages of the source.

Key:
[1] = target: isolated recombinant JAK1 kinase domain (Homo sapiens (Human), UniProt P23458); assay: JAK1 enzyme assay (Caliper LabChip, Ki); type: biochemical
In short: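 Ki derived via Morrison tight-binding model, ATP-competitive correction applied. Read-out: product/total ratio of a 5-carboxyfluorescein-tagged JAK3 peptide separated on Caliper LabChip after phosphorylation by isolated human JAK1 kinase domain (22 °C, 30 min; EDTA quench, 50 mM final).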

[2] = target: isolated recombinant JAK2 kinase domain (Homo sapiens (Human), UniProt O60674); assay: JAK2 enzyme assay (Caliper LabChip, Ki); type: biochemical
Sequence of isolated recombinant JAK2 kinase domain (O60674 849-1124): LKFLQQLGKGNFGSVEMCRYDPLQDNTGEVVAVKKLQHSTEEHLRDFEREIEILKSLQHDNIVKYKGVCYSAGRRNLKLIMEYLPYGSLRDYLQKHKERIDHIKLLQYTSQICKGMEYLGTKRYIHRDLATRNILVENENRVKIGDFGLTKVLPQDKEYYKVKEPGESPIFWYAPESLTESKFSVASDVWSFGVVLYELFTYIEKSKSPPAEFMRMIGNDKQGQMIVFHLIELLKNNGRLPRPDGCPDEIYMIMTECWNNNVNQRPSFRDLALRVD
In short: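 Caliper LabChip readout of phosphorylated product as a fraction of total substrate, a fluorescently N-terminally labelled JAK3-derived peptide. Isolated human JAK kinase domains were incubated 30 min at 22 °C before EDTA quench (50 mM final).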

[3] = test system: JAK1-dependent STAT6 phosphorylation downstream of IL-13 stimulation in BEAS-2B human bronchial epithelial cells; assay: JAK1 pathway assay in BEAS-2B cells (IL-13-pSTAT6, MSD); type: cell-based; details: Homo sapiens, BEAS-2B
Method: JAK1 Pathway Assay in Cell Lines was carried out as follows:
Inhibitor potency (EC50) was determined in cell-based assays designed to measure JAK1 dependent STAT phosphorylation.
In one assay approach, TF-1 human erythroleukemia cells obtained from the American Type Culture Collection (ATCC; Manassas, Va.) were used to measure JAK1-dependent STAT6 phosphorylation downstream of IL-13 stimulation. Prior to use in the assays, TF-1 cells were starved of GM-CSF overnight in OptiMEM medium (Life Technologies, Grand Island, N.Y.) supplemented with 0.5% charcoal/dextran stripped fetal bovine serum (FBS), 0.1 mM non-essential amino acids (NEAA), and 1 mM sodium pyruvate. The assays were run in 384-well plates in serum-free OptiMEM medium using 300,000 cells per well. In a second assay approach, BEAS-2B human bronchial epithelial cells obtained from ATCC were plated at 100,000 cells per well of a 96-well plate one day prior to the experiment. The BEAS-2B assay was run in complete growth medium (bronchial epithelial basal medium plus bulletkit; Lonza; Basel, Switzerland).
Test compounds were serially diluted 1:2 in DMSO and then diluted 1:50 in medium just before use. Diluted compounds were added to the cells, for a final DMSO concentration of 0.2%, and incubated for 30 min (for the TF-1 assay) or 1 hr (for the BEAS-2B assay) at 37° C. Then, cells were stimulated with human recombinant cytokine at their respective EC90 concentrations, as previously determined for each individual lot. Cells were stimulated with IL-13 (R&D Systems, Minneapolis, Minn.) for 15 min at 37° C. The TF-1 cell reactions were stopped by the direct addition of 10× lysis buffer (Cell Signaling Technologies, Danvers, Mass.), whereas the BEAS-2B cell incubations were halted by the removal of medium and addition of 1× lysis buffer. The resultant samples were frozen in the plates at −80° C. Compound mediated inhibition of STATE phosphorylation was measured in the cell lysates using MesoScale Discovery (MSD) technology (Gaithersburg, Md.).

[4] = BEAS-2B cells, IL-13 stimulation, read-out: IL-13 p-STAT6 BEAS-2B IC50
[5] = read-out: IL-13 p-STAT6 BEAS-2B IC50, BEAS-2B cells, IL-13 stimulation

Sequence of isolated recombinant JAK1 kinase domain (P23458 875-1153): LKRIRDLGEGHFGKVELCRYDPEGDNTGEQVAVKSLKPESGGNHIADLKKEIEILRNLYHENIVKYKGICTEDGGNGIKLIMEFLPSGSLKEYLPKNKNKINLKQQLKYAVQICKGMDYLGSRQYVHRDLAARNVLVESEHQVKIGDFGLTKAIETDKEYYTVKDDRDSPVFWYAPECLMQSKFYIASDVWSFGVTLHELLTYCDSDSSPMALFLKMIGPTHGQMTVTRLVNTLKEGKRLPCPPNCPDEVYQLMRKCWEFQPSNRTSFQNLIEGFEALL

Question: For COc1cccc(-c2ccc(CN3CCC(CC#N)(n4cc(C(N)=O)c(NC(=O)C5CC5)n4)CC3)cc2)c1 [Example 152, 1-[4-(cyanomethyl)-1-[[4-(3-methoxyphenyl)phenyl]methyl]-4-piperidyl]-3-(cyclopropanecarbonylamino) pyrazole-4-carboxamide], which Ki ([1]; read-out: JAK1 Ki) is on record?
Answer: Its Ki is 1.3 nM.

Question: What about the Ki [2] of the same compound?
Answer: The Ki was 7.8 nM.

Question: And the IC50 [3, 4]?
Answer: Its IC50 is 126 nM.

Question: For COc1ccc(-c2ccc(CN3CCC(CC#N)(n4cc(C(N)=O)c(NC(=O)C5CC5)n4)CC3)cc2)cc1 [Example 153, 1-[4-(cyanomethyl)-1-[[4-(4-methoxyphenyl)phenyl]methyl]-4-piperidyl]-3-(cyclopropanecarbonylamino) pyrazole-4-carboxamide], which Ki ([1]; read-out: JAK1 Ki) is on record?
Answer: The Ki was 1.1 nM.

Question: And the Ki [2]?
Answer: Its Ki is 30.8 nM.

Question: What about the IC50 [3, 4] of the same compound?
Answer: Its IC50 is 103 nM.

Question: Which Ki ([1]; read-out: JAK1 Ki) does the source give for CCc1cccc(-c2ccc(CN3CCC(CC#N)(n4cc(C(N)=O)c(NC(=O)C5CC5)n4)CC3)cc2)c1 [Example 154, 1-[4-(cyanomethyl)-1-[[4-(3-ethylphenyl)phenyl]methyl]-4-piperidyl]-3-(cyclopropanecarbonylamino) pyrazole-4-carboxamide] here?
Answer: Its Ki is 1.5 nM.

Question: And the Ki [2]?
Answer: Its Ki is 8.7 nM.

Question: And the IC50 [3, 4]?
Answer: Its IC50 is 116 nM.

Question: Which Ki ([1]; read-out: JAK1 Ki) does the source give for CCc1ccc(-c2ccc(CN3CCC(CC#N)(n4cc(C(N)=O)c(NC(=O)C5CC5)n4)CC3)cc2)cc1 [Example 155, 1-[4-(cyanomethyl)-1-[[4-(4-ethylphenyl)phenyl]methyl]-4-piperidyl]-3-(cyclopropanecarbonylamino) pyrazole-4-carboxamide] here?
Answer: Its Ki is 0.6 nM.

Question: What about the Ki [2] of the same compound?
Answer: Its Ki is 7.3 nM.

Question: And the IC50 [3, 4]?
Answer: Its IC50 is 60 nM.

Question: N#CCC1(n2cc(C(N)=O)c(NC(=O)C3CC3)n2)CCN(Cc2ccc(-c3cccc(CO)c3)cc2)CC1 [Example 156, 1-[4-(cyanomethyl)-1-[[4-[3-(hydroxymethyl)phenyl]phenyl]methyl]-4-piperidyl]-3-(cyclopropanecarbonylamino) pyrazole-4-carboxamide] was tested. Which Ki ([1]; read-out: JAK1 Ki) did it give?
Answer: Its Ki is 0.6 nM.

Question: And the Ki [2]?
Answer: Its Ki is 4.3 nM.

Question: What about the IC50 [3, 4] of the same compound?
Answer: The IC50 was 209 nM.

Question: With COCc1cccc(-c2ccc(CN3CCC(CC#N)(n4cc(C(N)=O)c(NC(=O)C5CC5)n4)CC3)cc2)c1 [Example 157, 1-[4-(cyanomethyl)-1-[[4-[3-(methoxymethyl)phenyl]phenyl]methyl]-4-piperidyl]-3-(cyclopropanecarbonylamino) pyrazole-4-carboxamide] as the compound, how does the Ki ([1]; read-out: JAK1 Ki) read?
Answer: Its Ki is 1.6 nM.

Question: And the Ki [2]?
Answer: Its Ki is 13.7 nM.

Question: What about the IC50 [3, 4] of the same compound?
Answer: The IC50 was 104 nM.

Question: What does the source list for Cc1cc(CN2CCC(CC#N)(n3cc(C(N)=O)c(NC(=O)C4CC4)n3)CC2)ccc1-c1ccccc1 [Example 160, 1-[4-(cyanomethyl)-1-[(3-methyl-4-phenyl-phenyl)methyl]-4-piperidyl]-3-(cyclopropanecarbonylamino) pyrazole-4-carboxamide]?
Answer: Ki ([1]; read-out: JAK1 Ki): 3.2 nM; Ki [2]: 12 nM; IC50 [3, 4]: 186 nM

Question: For N#CCC1(n2cc(C(N)=O)c(NC(=O)C3CC3)n2)CCN(Cc2ccc(-c3ccccc3)c(C#N)c2)CC1 [Example 161, 1-[4-(cyanomethyl)-1-[(3-cyano-4-phenyl-phenyl)methyl]-4-piperidyl]-3-(cyclopropanecarbonylamino) pyrazole-4-carboxamide], which Ki ([1]; read-out: JAK1 Ki) is on record?
Answer: Its Ki is 5.5 nM.

Question: And the Ki [2]?
Answer: The Ki was 35.3 nM.

Question: And the IC50 [3, 4]?
Answer: Its IC50 is 1010 nM.

Question: For COc1cc(CN2CCC(CC#N)(n3cc(C(N)=O)c(NC(=O)C4CC4)n3)CC2)ccc1-c1ccccc1 [Example 162, 1-[4-(cyanomethyl)-1-[(3-methoxy-4-phenyl-phenyl)methyl]-4-piperidyl]-3-(cyclopropanecarbonylamino) pyrazole-4-carboxamide], which Ki ([1]; read-out: JAK1 Ki) is on record?
Answer: Its Ki is 3.1 nM.

Question: And the Ki [2]?
Answer: Its Ki is 10.6 nM.

Question: What about the IC50 [3, 4] of the same compound?
Answer: Its IC50 is 293 nM.

Question: How did the Ki ([1]; read-out: JAK1 Ki) turn out when N#CCC1(n2cc(C(N)=O)c(NC(=O)C3CC3)n2)CCN(Cc2ccc(-c3ccccc3)c(Cl)c2)CC1 [Example 163, 1-[1-[(3-chloro-4-phenyl-phenyl)methyl]-4-(cyanomethyl)-4-piperidyl]-3-(cyclopropanecarbonylamino) pyrazole-4-carboxamide] was run?
Answer: The Ki was 2.1 nM.

Question: And the Ki [2]?
Answer: The Ki was 18.5 nM.

Question: And the IC50 [3, 4]?
Answer: The IC50 was 103 nM.

Question: N#CC[C@]1(n2cc(C(N)=O)c(NC(=O)C3CC3)n2)CCN(Cc2ccccc2)C[C@@H]1F [Example 164, 1-[1-benzyl-4-(cyanomethyl)-3-fluoro-4-piperidyl]-3-(cyclopropanecarbonylamino) pyrazole-4-carboxamide] was tested. Which Ki ([1]; read-out: JAK1 Ki) did it give?
Answer: The Ki was 2.7 nM.

Question: And the Ki [2]?
Answer: The Ki was 9 nM.

Question: And the IC50 [3, 4]?
Answer: Its IC50 is 275 nM.

Question: How did the Ki ([1]; read-out: JAK1 Ki) turn out when N#CCC1(n2cc(C(N)=O)c(NC(=O)C3CC3)n2)CCN(Cc2ccc(-c3ccc(C(F)(F)F)cc3)nc2)CC1 [Example 166, 1-[4-(cyanomethyl)-1-[[6-[4-(trifluoromethyl)phenyl]-3-pyridyl]methyl]-4-piperidyl]-3-(cyclopropanecarbonylamino) pyrazole-4-carboxamide] was run?
Answer: The Ki was 2.2 nM.

Question: What about the Ki [2] of the same compound?
Answer: Its Ki is 80 nM.

Question: What about the IC50 [3, 4] of the same compound?
Answer: The IC50 was 68 nM.

Question: How did the Ki ([1]; read-out: JAK1 Ki) turn out when N#CCC1(n2cc(C(N)=O)c(NC(=O)C3CC3)n2)CCN(C(=O)OCC(F)(F)F)CC1 [Example 167, 2,2,2-trifluoroethyl 4-[4-carbamoyl-3-(cyclopropanecarbonylamino)pyrazol-1-yl]-4-(cyanomethyl)piperidine-1-carboxylate] was run?
Answer: The Ki was 2.3 nM.

Question: And the Ki [2]?
Answer: The Ki was 28.7 nM.

Question: And the IC50 [3, 4]?
Answer: Its IC50 is 833 nM.

Question: How did the Ki ([1]; read-out: JAK1 Ki) turn out when N#CCC1(n2cc(C(N)=O)c(NC(=O)C3CC3)n2)CCN(C(=O)CCC(F)(F)F)CC1 [Example 169, 1-[4-(cyanomethyl)-1-(4,4,4-trifluorobutanoyl)-4-piperidyl]-3-(cyclopropanecarbonylamino) pyrazole-4-carboxamide] was run?
Answer: The Ki was 3.7 nM.

Question: And the Ki [2]?
Answer: Its Ki is 48.3 nM.

Question: And the IC50 [3, 4]?
Answer: Its IC50 is > 1000 nM.

Question: What does the source list for N#CC[C@]1(n2cc(C(N)=O)c(NC(=O)C3CC3)n2)CC[C@@H](N2CC(F)(F)C2)CC1 [Example 178, 1-[1-(cyanomethyl)-4-(3,3-difluoroazetidin-1-yl)cyclohexyl]-3-(cyclopropanecarbonylamino) pyrazole-4-carboxamide]?
Answer: Ki [1]: 4.7 nM; Ki [2]: 18.4 nM; IC50 [3, 5]: 167 nM

Question: For N#CC[C@]1(n2cc(C(N)=O)c(NC(=O)C3CC3)n2)CC[C@@H](N2CC(F)C2)CC1 [Example 180, 1-[1-(cyanomethyl)-4-(3-fluoroazetidin-1-yl)cyclohexyl]-3-(cyclopropanecarbonylamino) pyrazole-4-carboxamide], which Ki [1] is on record?
Answer: The Ki was 5.5 nM.

Question: What about the Ki [2] of the same compound?
Answer: The Ki was 17.3 nM.

Question: What about the IC50 [3, 5] of the same compound?
Answer: Its IC50 is 168 nM.

Question: Which results are given for CC(OC(=O)N1CCC(CC#N)(n2cc(C(N)=O)c(NC(=O)C3CC3)n2)CC1)C1CC1 (stereo not drawn) [Example 182, 1-cyclopropylethyl 4-[4-carbamoyl-3-(cyclopropanecarbonylamino)pyrazol-1-yl]-4-(cyanomethyl)piperidine-1-carboxylate]?
Answer: Ki ([1]; read-out: JAK1 Ki): 4.7 nM; Ki [2]: 50.7 nM; IC50 [3, 4]: 675 nM

Question: Which results are given for N#CCC1(n2cc(C(N)=O)c(NC(=O)C3CC3)n2)CCN(Cc2ccccc2F)CC1 [Example 184, 1-[4-(cyanomethyl)-1-[(2-fluorophenyl)methyl]-4-piperidyl]-3-(cyclopropanecarbonylamino) pyrazole-4-carboxamide]?
Answer: Ki ([1]; read-out: JAK1 Ki): 90.4 nM; Ki [2]: 160 nM; IC50 [3, 4]: 177 nM

Question: For COC(=O)Nc1nn(C2(CC#N)CCN(Cc3ccc(-c4ccccc4)c(O)c3)CC2)cc1C(N)=O [Example 186, Methyl (4-carbamoyl-1-(4-(cyanomethyl)-1-((2-hydroxy-[1,1′-biphenyl]-4-yl) Methyl)piperidin-4-yl)-1H-pyrazol-3-yl)carbamate], which Ki ([1]; read-out: JAK1 Ki) is on record?
Answer: Its Ki is 0.24 nM.

Question: What about the Ki [2] of the same compound?
Answer: The Ki was 1 nM.

Question: And the IC50 [3, 4]?
Answer: The IC50 was 68 nM.

Question: Which Ki ([1]; read-out: JAK1 Ki) does the source give for CCOC(=O)Nc1nn(C2(CC#N)CCN(Cc3ccc(-c4ccccc4)c(O)c3)CC2)cc1C(N)=O [Example 187, ethyl N-[4-carbamoyl-1-[4-(cyanomethyl)-1-[(3-hydroxy-4-phenyl-phenyl)methyl]-4-piperidyl]pyrazol-3-yl]carbamate] here?
Answer: The Ki was 0.52 nM.

Question: What about the Ki [2] of the same compound?
Answer: The Ki was 3.1 nM.

Question: What about the IC50 [3, 4] of the same compound?
Answer: Its IC50 is 74 nM.

Question: N#CCC1(n2cc(C(N)=O)c(NC(=O)C3CC3)n2)CCN(Cc2ccc(-c3ccccc3)nc2F)CC1 [Example 188, 1-[4-(cyanomethyl)-1-[(2-fluoro-6-phenyl-3-pyridyl)methyl]-4-piperidyl]-3-(cyclopropanecarbonylamino) pyrazole-4-carboxamide] was tested. Which Ki ([1]; read-out: JAK1 Ki) did it give?
Answer: Its Ki is 0.6 nM.

Question: And the Ki [2]?
Answer: The Ki was 1.4 nM.

Question: And the IC50 [3, 4]?
Answer: Its IC50 is 34 nM.
